# Reference: patent US20250270445A1, “COMPOUNDS AND USES THEREOF IN FIELD OF OPTOELECTRONICS” (Zhejiang Brilliant Optoelectronic Technology Co.,Ltd., priority 2022, published 2025)
# Assays:
# Format in all cases: physicochemical
# [1] = Solubility of compounds in toluene
# Protocol: The solubility of the compounds in the toluene were determined as follows: • 1. 1000 mg of toluene solution was placed in the transparent glass sample bottle. • 2. A certain mass of the compound was added into the toluene, and oscillated until completely dissolved. • 3. After the compound was completely dissolved, a certain mass of the compound was further added into the toluene, and oscillated. • 4. The above steps were repeated until the compound wasn't dissolved any more. • 5. The total mass of the compound added was recorded and the solubility was obtained by calculation.
# [2] = Absorption spectrum, emission spectrum and extinction coefficient in toluene solution; conditions: for Molar extinction coefficient of the toluene solution: maximum absorption peak
# Protocol: The extinction coefficients of the compounds and their absorption and emission spectrums in the solution were determined as follows: • 1. The compound with a certain amount of substance concentration in the toluene was prepared in a volumetric flask. • 2. The absorption spectrum of the solution was measured by using an ultraviolet-visible spectrophotometer (Puxi T9s) to obtain the absorption peak wavelength. • 3. The absorbance of the maximum absorption peak divided by the amount of substance concentration is the molar extinction coefficient of the compound. • 4. The emission spectrum of the solution was measured by using a fluorescent spectroscope (Hitachi, F-4700 FL Spectrophotometer) to obtain the emission peak wavelength.
# [3] = Absorption and emission spectrum in spin-coated film
# Protocol: The absorption and emission spectrums of the compounds in the film were determined as follows: • 1. The compound with a certain concentration in the toluene was prepared. • 2. The prepared toluene solution was dropped onto a clean glass substrate. • 3. Spin-coating, and then heating at the 80° C. for 1 min. • 4. The absorption spectrum of the film was measured by using an ultraviolet-visible spectrophotometer (Puxi T9s) to obtain the absorption peak wavelength. • 5. The emission spectrum of the film was measured by using a fluorescent spectroscope (Hitachi, F-4700 FL Spectrophotometer) to obtain the emission peak wavelength.
Structure (SMILES),"Solubilities(/100 g, toluene) [1]",Absorption peak of the toluene solution [2],Emission peak of the toluene solution [2],Molar extinction coefficient of the toluene solution [2],other results
CC(C)(C)c1ccc2c(c1)c1cc(C(C)(C)C)cc3c1n2-c1cccc2c1B3c1cc3c4ccccc4c4ccccc4c3c3c4c5c6ccccc6c6ccccc6c5ccc4n-2c13 [E2],>0.7 g/100 g toluene,507 nm,523 nm,4.8 × 10^4 L · mo 1^−1,–
CC(C)(C)c1ccc2c(c1)c1cc(C(C)(C)C)cc3c1n2-c1cc(-c2c(-c4ccccc4)cc(-c4ccccc4)cc2-c2ccccc2)cc2c1B3c1cc3c4ccccc4c4ccccc4c3c3c4c5c6ccccc6c6ccccc6c5ccc4n-2c13 [E3],>0.7 g/100 g toluene,512 nm,530 nm,6.6 × 10^4 L · mo 1^−1,–
"CCCCCCC1(CCCCCC)c2ccccc2-c2ccc(-c3ccccc3-c3ccc4c5cccc6c(-c7ccccc7-c7ccc8c(c7)C(CCCCCC)(CCCCCC)c7ccccc7-8)ccc(c7cccc3c74)c65)cc21 [comparative compound 1, reference compound]",–,461 nm,485 nm,4.3 × 10^4 L · mo 1^−1,red shift of film spectrum versus solution spectrum ([3]; film versus toluene solution): large red shift; Absorption peak of the film ([3]; spin-coated film): 464 nm; Emission peak of the film ([3]; spin-coated film): 543 nm
CC(C)c1cccc(C(C)C)c1N(c1ccc(C(C)(C)C)cc1)c1cc(N(c2ccc(C(C)(C)C)cc2)c2c(C(C)C)cccc2C(C)C)c2ccc3c(N(c4ccc(C(C)(C)C)cc4)c4c(C(C)C)cccc4C(C)C)cc(N(c4ccc(C(C)(C)C)cc4)c4c(C(C)C)cccc4C(C)C)c4ccc1c2c43 [compound 6],>20 g/100 g toluene,–,–,–,–
CC(C)c1cccc(C(C)C)c1N(c1cc(C(C)(C)C)cc(C(C)(C)C)c1)c1cc(N(c2cc(C(C)(C)C)cc(C(C)(C)C)c2)c2c(C(C)C)cccc2C(C)C)c2ccc3c(N(c4cc(C(C)(C)C)cc(C(C)(C)C)c4)c4c(C(C)C)cccc4C(C)C)cc(N(c4cc(C(C)(C)C)cc(C(C)(C)C)c4)c4c(C(C)C)cccc4C(C)C)c4ccc1c2c43 [compound 7],>20 g/100 g toluene,–,–,–,–
Cc1cc2ccccc2cc1N(c1ccc(C(C)(C)C)cc1)c1cc(N(c2ccc(C(C)(C)C)cc2)c2cc3ccccc3cc2C)c2ccc3c(N(c4ccc(C(C)(C)C)cc4)c4cc5ccccc5cc4C)cc(N(c4ccc(C(C)(C)C)cc4)c4cc5ccccc5cc4C)c4ccc1c2c43 [compound 10],>2.5 g/100 g toluene,–,–,–,–
Cc1cc2ccccc2c(C)c1N(c1ccc(C(C)(C)C)cc1)c1cc(N(c2ccc(C(C)(C)C)cc2)c2c(C)cc3ccccc3c2C)c2ccc3c(N(c4ccc(C(C)(C)C)cc4)c4c(C)cc5ccccc5c4C)cc(N(c4ccc(C(C)(C)C)cc4)c4c(C)cc5ccccc5c4C)c4ccc1c2c43 [compound 11],>2 g/100 g toluene,–,–,–,–
Cc1cccc(C)c1N(c1ccc(C(F)(F)F)cc1)c1cc(N(c2ccc(C(F)(F)F)cc2)c2c(C)cccc2C)c2ccc3c(N(c4ccc(C(F)(F)F)cc4)c4c(C)cccc4C)cc(N(c4ccc(C(F)(F)F)cc4)c4c(C)cccc4C)c4ccc1c2c43 [compound 12],>4 g/100 g toluene,–,–,–,–
CC(C)c1ccc(N(c2cc(F)c(F)c(F)c2)c2cc(N(c3cc(F)c(F)c(F)c3)c3ccc(C(C)C)cc3/C=C/c3ccc(C(C)(C)C)cc3)c3ccc4c(N(c5cc(F)c(F)c(F)c5)c5ccc(C(C)C)cc5/C=C/c5ccc(C(C)(C)C)cc5)cc(N(c5cc(F)c(F)c(F)c5)c5ccc(C(C)C)cc5/C=C/c5ccc(C(C)(C)C)cc5)c5ccc2c3c54)c(/C=C/c2ccc(C(C)(C)C)cc2)c1 [compound 19],>5 g/100 g toluene,–,–,–,–
